Source: patent US6515025B2, “Use of ethynyl alanine amino diol compounds to inhibit enzymatic conversion of angiotensinogen to angiotensin I” (Pharmacia Corporation, priority 1991, dated 2003)
Like-named read-outs stand apart in the source and are kept apart here.

Experiments:
[1] = Oral bioavailability studies in marmosets (plasma concentration by bioassay); format: in vivo; details: plasma
Description: The bioavailability in marmosets and dogs was determined by sampling the blood via the femoral vein at various time points after administering the renin inhibitor compounds of the invention in polyethylene glycol 400 at an intragastric dose of 10 mg/kg or at an intravenous dose of 1 mg/kg. Compound concentration in plasma was determined using the bioassay technique described below. The percent bioavailability was calculated by dividing the area under the concentration-vs.-time curve obtained from the intragastric experiment by the area under the concentration-vs.-time curve obtained from the intravenous experiment (adjusting for different doses), and multiplying the result by 100%. The bioavailibility of Example 1 compound is 27% in marmosets and 33% in dogs.
Renin inhibitor plasma concentrations were determined by a bioassay. The plasma samples were extracted with acetonitrile and the extract was evaporated to dryness under nitrogen. Residue was dissolved in 4% bovine serum albumin containing 0.9% NaCl and 5% EDTA. The dissolved residue (0.1 ml) was incubated with a reaction mixture containing human plasma (0.12 ml), 5% phenylmethysulfonylfluoride (1.2 ul), 10% neomycin (2.4 ul), 0.5 M TES buffer (pH 7.4, 24 ul), and 0.6 mU/ml recombinant human renin (1000 U/mg, 50 ul) at 37° C. for 90 minutes. The renin activity was determined by a standard angiotensin I radioimmunoassay (New England Nuclear Corp.). The amount of test compound in the plasma was determined by comparing the extent of inhibition of renin activity with that produced by a known amount of test compound added to plasma and analyzed above.

[2] = target: T1, renin (Cyno Monkey plasma) (Macaca fascicularis, UniProt Q6DLS0); test: Renin inhibitor species specificity, cyno monkey plasma renin activity; format: biochemical
T1 construct: the animal plasma is the source of both the renin substrate and the renin enzyme; from tissue; host or cells: pooled cynomolgus monkey plasma
T1 sequence (Q6DLS0 67-406): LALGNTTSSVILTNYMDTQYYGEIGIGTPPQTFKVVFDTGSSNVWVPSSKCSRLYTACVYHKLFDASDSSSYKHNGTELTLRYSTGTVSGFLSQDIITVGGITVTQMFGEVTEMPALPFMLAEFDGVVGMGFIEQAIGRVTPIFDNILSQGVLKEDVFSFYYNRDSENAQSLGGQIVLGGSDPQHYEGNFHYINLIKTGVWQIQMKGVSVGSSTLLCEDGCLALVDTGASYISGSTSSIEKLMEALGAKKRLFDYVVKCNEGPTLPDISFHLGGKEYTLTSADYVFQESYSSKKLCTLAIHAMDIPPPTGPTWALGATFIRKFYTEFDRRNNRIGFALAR
Description: Blood was collected in a 10 ml Becton Dickinson vacutainer tube with 0.1 ml of 15% EDTA (K3) solution (15 mg) from normal animals or high renin animals; i.e., those pre-treated with 5 mg/kg of Lasix® intramuscularly 2 times within a 6 hour interval 24 hours prior to bleeding. The blood was then centrifuged at 2500 RPM for 20 minutes and the plasma from the various species respectively pooled, aliquoted and stored in the freezer. The human plasma source was taking a prescription of an angiotensin converting enzyme inhibitor.
The plasma renin activity assay is a modification of the human renin inhibition test in that the animal plasma is the source of both the renin substrate and the renin enzyme. In a total volume of 0.1 ml, 90 mM Tris-acetate buffer, pH 7.5, 12 mM sodium EDTA, 0.012 mg/ml neomycin sulfate, 0.9 mg/ml bovine serum albumin, 1.61 mM phenylmethyl sulfonyl fluoride, 4 mM 8-hydroxyquinoline and 0.09 ml of the animal or human plasmas were incubated for 2 hours at 37° C. in a shaking water bath or at 4° C. in an ice bath in the presence or absence of renin inhibitors. The produced angiotensin I was determined by radioimmunoassay (New England Nuclear kit).
The amount of angiotensin I generated during the 2 hours at 4° C. was usually less than 5% of that activity produced at 37° C.; however, the 4° C. background values were nevertheless subtracted from the 37° C. ones for the 100% activity values. The renin inhibitors were assayed in duplicate using 5 concentrations and the data is expressed as a percent of the 100% total renin activity.

[3] = marmoset, iv, 1 mg/kg, marmoset, IV at 1 mg/kg, Test Run D table, read-out: Plasma Concentrations, Mean ± SE
[4] = marmoset, iv, 1 mg/kg, marmoset, IV at 1 mg/kg, Test Run C, individual animals, read-out: Plasma Concentrations
[5] = marmoset, iv, 1 mg/kg, marmoset, IV at 1 mg/kg, Test Run D, individual animals, read-out: Plasma Concentrations
[6] = marmoset, oral, 10 mg/kg, marmoset, IG at 10 mg/kg, Test Run B, read-out: Plasma Concentrations, Mean ± SE
[7] = marmoset, oral, 10 mg/kg, marmoset, IG at 10 mg/kg, Test Run A, individual animals, read-out: Plasma Concentrations
[8] = marmoset, oral, 10 mg/kg, marmoset, IG at 10 mg/kg, Test Run B, individual animals, read-out: Plasma Concentrations

- concentration at 2 h [1, 3]: 1240 ± 271 ng/mL
- concentration at 3 h [1, 3]: 578 ± 90 ng/mL
- concentration at 4 h [1, 3]: 691 ± 160 ng/mL
- concentration at 6 h [1, 3]: 176 ± 31 ng/mL
- concentration at 2 min [1, 4]: 13700 ng/mL
- concentration at 30 min [1, 4]: 5860 ng/mL
- concentration at 1 h [1, 4]: 3090 ng/mL
- concentration at 3 h [1, 4]: 486 ng/mL
- concentration at 6 h [1, 4]: 264 ng/mL
- concentration at 2 min [1, 5]: 4200 ng/mL
- concentration at 30 min [1, 5]: 1950 ng/mL
- concentration at 2 h [1, 5]: 554 ng/mL
- concentration at 6 h [1, 5]: 95 ng/mL
- concentration at 30 min [1, 6]: 4990 ± 1750 ng/mL
- concentration at 1 h [1, 6]: 3840 ± 1820 ng/mL
- concentration at 2 h [1, 6]: 3960 ± 2000 ng/mL
- concentration at 3 h [1, 6]: 4510 ± 939 ng/mL
- concentration at 4 h [1, 6]: 3360 ± 1730 ng/mL
- concentration at 5 h ([1]; marmoset, oral, 10 mg/kg, marmoset, IG at 10 mg/kg, 5 hr, Test Run B, read-out: Plasma Concentrations, Mean ± SE): 2460 ± 1170 ng/mL
- concentration at 6 h [1, 6]: 3430 ± 457 ng/mL
- concentration at 8 h [1, 6]: 2610 ± 400 ng/mL
- concentration at 30 min [1, 7]: 9860 ng/mL
- concentration at 1 h [1, 7]: 1340 ng/mL
- concentration at 2 h [1, 7]: 1560 ng/mL
- concentration at 3 h [1, 7]: 7050 ng/mL
- concentration at 6 h [1, 7]: 4910 ng/mL
- concentration at 8 h [1, 7]: 3570 ng/mL
- concentration at 30 min [1, 8]: 1340 ng/mL
- concentration at 6 h [1, 8]: 2860 ng/mL
- concentration at 8 h [1, 8]: 1800 ng/mL
- bioavailability ([1]; marmoset, oral, marmosets, IG 10 mg/kg vs IV 1 mg/kg): 27%
- half-life ([1]; monkey, marmosets, read-out: terminal half-life (converted)): 1.5 h
- Vd ([1]; monkey, marmosets, read-out: volume of distribution): 0.2 L/kg
- % of Total Renin Activity ([2]; 1 nM): 81%
- % of Total Renin Activity ([2]; 4 nM): 51%
- % of Total Renin Activity ([2]; 16 nM): 18%
Structure (SMILES): C#CC[C@H](NC(=O)C(CC(=O)N(C)CCN(C)C)Cc1ccccc1)C(=O)NC(CC1CCCCC1)[C@@H](O)C(O)CC(C)C (relative stereo) [Example 1, N1-[1R*-[[[1S,1R*-(cyclohexylmethyl)-2S*,3R*-dihydroxy-5-methylhexyl]amino]carbonyl]-3-butynyl]-N4-[2-(dimethylamino)ethyl]-N4-methyl-2S*-(phenylmethyl)butanediamide]
